EP3532040B1, “A PERSONAL CARE COMPOSITION” (Unilever Global IP Limited, priority 2016, dated 2018)

Legend:
[1] = Visual assessment of color of the compound compared with curcumin; type: physicochemical; conditions: color of the compound itself
Text: It is desirable that the color of the novel compound of the present invention lies within the colorless to light yellow range for optimum visual appeal and usage in topical and/or skin care compositions. Visual assessment of color from a solid or solution sample of novel compounds in comparison to a solid or solution sample of curcumin provides a means to determine relative reduction of color and appeal potential. In addition, UV-Vis spectra of solution samples of novel compounds in comparison to a solution sample of curcumin provides a means to measure color experimentally and allows a more direct measurement of color. Thus, using these two simple measurements it is possible to assess the relative reduction in color of novel inventive compounds relative to curcumin and allows prioritization of compounds for further development.

[2] = Color assessment of solutions (L*a*b* color space, Labscan XE, and visual appearance); type: physicochemical; conditions: 200 µM in ethyl acetate; for b* / L* / a*: 21 °C; for b*: vehicle 1.78; for L*: vehicle 68.79; for a*: vehicle -0.49
Protocol: Solutions of compound with formula 1 and curcumin were prepared in ethyl acetate (200 µM) and the L*a*b* color space measured at room temperature (21 °C) using a Labscan XE instrument (Hunter Associates Labs Inc., Reston, VA) and processed with Universal Software (version 4.10). […]

[3] = system: Primary human gingival fibroblasts; test: Anti-inflammation efficacy in Human Gingival Fibroblasts assay (P. gingivalis-stimulated IL-6, IL-8, MCP-1 release, ELISA); type: cell-based; conditions: 20 µM active preincubated 2 h, then heat-inactivated P. gingivalis 4 h
Protocol: Primary human gingival fibroblasts (HGFs, Cat No. 2620, ScienCell™) were cultured in complete fibroblast medium which included 500 mL of basal medium, 10 mL of fetal bovine serum (FBS), 5 mL of fibroblast growth supplement, and 5 mL of penicillin/streptomycin solution (Cat No. 2301, ScienCell™). HGFs were seeded in 24 well-plates at the density of 2 × 10^4 cells / well and cultured for 72 h. Cells were preincubated with active for 2 h. After removal of the active medium, the cells were washed with PBS and further treated with heat-inactivated P. gingivalis (Cat. 33277, ATCC). After 4 h, the supernatants were collected and measured for IL-6, IL-8 and monocyte chemoattractant protein (MCP) -1 as pro-inflammatory bio-markers using ELISA.

THP1-XBlue cells = test: Anti-inflammation efficacy in THP-1 in vitro assay (LPS-stimulated IL-6 release, ELISA); type: cell-based; conditions: 24 h, PMA-differentiated cells, LPS alone 10508
Protocol: THP1-XBlue™ (Cat No: thpx-sp, InvivoGen) cells were cultured as suspense in RPMI 1640 medium supplemented with 10% FBS, penicillin (10 U/mL) - streptomycin (10 µg/ML). Cells were differentiated in 24-well plates at the density of 5 × 10^5 cells / well with 100 nM PMA for 72 h. Cells were then co-treated with pure E. coli lipopolysaccharides (LPS) and with active. After 24 h, the supernatants were collected and measured for interleukin (IL)-6 as pro-inflammatory bio-marker using enzyme-linked immunosorbent assay (ELISA).

[4] = Solubility in solvents compared with curcumin; type: physicochemical

COc1cc(/C=C/C(=O)CC(=O)/C=C/c2ccc(O)c(OC)c2)ccc1O [Curcumin, reference compound]
color [1]: orange
Appearance (visual appearance of solution) [2]: yellow
b* [2]: 63.88
L* [2]: 68.53
a* [2]: -18.66

COc1cc(C2CC2C(=O)C(C)(C)C(=O)C2CC2c2ccc(O)c(OC)c2)ccc1O (stereo not shown) [compound of formula 1, 1,3-bis(2-(4-hydroxy-3-methoxyphenyl)cyclopropyl)-2,2-dimethylpropane-1,3-dione]
Concentration MCP-1 ([3]; P. gingivalis alone 388): 232 pg/mL
Concentration IL-6 ([3]; P. gingivalis alone 595): 286 pg/mL
Concentration IL-8 ([3]; P. gingivalis alone 17100): 8321 pg/mL
Concentration of IL-6 (THP1-XBlue cells; 10 µM active co-treated with E. coli LPS): 5591 pg/mL
Concentration of IL-6 (THP1-XBlue cells; 20 µM active co-treated with E. coli LPS): 2996 pg/mL
color [1]: light yellow
solubility in a broad spectrum of solvents [4]: significantly improved solubility
Appearance (visual appearance of solution) [2]: colorless
b* [2]: 2.49
L* [2]: 68.62
a* [2]: -0.68
